Assay results reported in patent US9408386B2, “Use of succinate dehydrogenase inhibitors (SDHIs) for controlling wood diseases in grape” (BAYER CROPSCIENCE AG, priority 2012, dated 2016).

How the values were obtained:
Type in all cases: cell-based
[1] = system: several fungi belonging to the community usually found in plants showing Esca symptoms; experiment: In vitro mycelium growth test, summary over the Esca fungi community; conditions: at 50 ppm
Procedure: (§1) This test is carried out on representative fungi found in grape plants showing “Esca” Symptoms
(§2) Formulated products are diluted in sterilized dematerialized water at the desired concentration and added to malt agar medium. Fluopyram and penflufen were used as a […] formulation formulation containing 100 g/l active ingredient (SC 100), Bixafen as a emulsifiable concentrate formulation containing 200 g/l active ingredient (EC 200), and tebuconazole as a oil in water emulsion formulation containing 250 g/l active ingredient (EW 250). The medium containing the product to be tested is poured in 90 mm diameter Petri dishes. Each dish is then inoculated using a 5 mm diameter mycelium plug taken, using a cork borer, from the active growing edge of a colony.
(§3) Inoculated Petri dishes are then incubated at 22° C. with a photoperiod of 12 h. The incubation period corresponds to the time required for the fungus to invade the entire surface of the growth medium. At that time, mycelium growth is evaluated by calculating the mean of two perpendicular measure of the colony diameter. A percentage of efficacy is then calculated (Abbott formula).
(§4) The concentration of 50 ppm corresponds approximately to about 50 g/ha when an application amount of 1000 l water per hectare is used.

Formitiporia mediteranea = experiment: In vitro mycelium growth test on malt agar medium
Procedure: as §1, §2, §3, §4

Botryosphaeria dothidea = experiment: In vitro mycelium growth test on malt agar medium; conditions: 50 ppm in malt agar, 22° C., colony diameter, Abbott formula
Procedure: as §1, §2, §3, §4

[2] = system: Phaeoacremonium aleophilum; experiment: In vitro mycelium growth test on malt agar medium; conditions: 50 ppm in malt agar, 22° C., colony diameter, Abbott formula
Procedure: as §1, §2, §3, §4

Eutypa lata = experiment: In vitro mycelium growth test on malt agar medium; conditions: 50 ppm in malt agar, 22° C., colony diameter, Abbott formula
Procedure: as §1, §2, §3, §4

[3] = system: Phaemoniella chlamydospora; experiment: In vitro mycelium growth test on malt agar medium
Procedure: as §1, §2, §3, §4

Botryosphaeria obtusa = experiment: In vitro mycelium growth test on malt agar medium; conditions: 50 ppm in malt agar, 22° C., colony diameter, Abbott formula
Procedure: as §1, §2, §3, §4

[4] = Formitiporia mediteranea, 50 ppm in malt agar, 22° C., colony diameter, Abbott formula
[5] = Phaemoniella chlamydospora, 50 ppm in malt agar, 22° C., colony diameter, Abbott formula

| SMILES | reduction of several fungi of the Esca community [1] | In Vitro Efficacy Mycellium** (Formitiporia mediteranea; [4]) | In Vitro Efficacy Mycellium** (Botryosphaeria dothidea) | In Vitro Efficacy Mycellium** [2] | In Vitro Efficacy Mycellium** (Eutypa lata) | In Vitro Efficacy Mycellium** [3, 5] | In Vitro Efficacy Mycellium** (Botryosphaeria obtusa) | In Vitro Efficacy Mycellium** (Formitiporia mediteranea; 50 ppm) | In Vitro Efficacy Mycellium** ([3]; 50 ppm) |
| --- | --- | --- | --- | --- | --- | --- | --- | --- | --- |
| Cn1cc(C(=O)Nc2ccc(F)cc2-c2ccc(Cl)c(Cl)c2)c(C(F)F)n1 [Bixafen, bixafen] | significant reduction | 100% | 86% | 69% | 100% | 100% | 85% | – | – |
| CC(C)(C)C(O)(CCc1ccc(Cl)cc1)Cn1cncn1 (stereo not drawn) [Tebuconazole, tebuconazole] | – | – | 100% | 100% | 100% | – | 100% | 100% | 100% |
| Cc1nn(C)c(F)c1C(=O)Nc1ccccc1C(C)CC(C)C (stereo not drawn) [Penflufen, penflufen] | significant reduction | 100% | 64% | 62% | 83% | 75% | 65% | – | – |
| O=C(NCCc1ncc(C(F)(F)F)cc1Cl)c1ccccc1C(F)(F)F [Fluopyram, N-[2-[3-chloro-5-(trifluoromethyl)-2-pyridinyl]ethyl]-2-(trifluoromethyl)benzamide] | significant reduction | – | 55% | 35% | 61% | – | 65% | 10% | 59% |
